Assay results: US5672597A, “Acetamide derivative” (Kaken Pharmaceutical Co., Ltd., priority 1992, dated 1997)
Where two headings read alike, the source gives them in different places.

Key:
[1] = test system: ulcer induced by pylorus-ligation; experiment: Test of ulcer induced by pylorus-ligation; type: in vivo, wistar male rat; details: 14 h, read-out: Percentage of inhibition of ulcer formation
Procedure: (§1) With respect to anti-ulcer effect of the compounds having the general formula (I), there were carried out a test of ulcer induced by pylorus-ligation, which ulcer is induced mainly due to offensive factors; a test of ulcer induced by hydrochloric acid/ethanol, which ulcer is induced mainly due to defensive factors such as mucosal blood flow and mucus; and a test of ulcer induced by a stress of restraint plus water-immersion, which ulcer is induced due to both of offensive and defensive factors. Further, there were carried out a test of ulcer induced by acetic acid as a chronic ulcer model and a test of cure-prolonged ulcer induced by acetic acid. Also, there was examined an activity of increasing gastric mucosal blood flow, which activity brings about acceleration of regeneration of the gastric mucosa. As test compounds, hydrochloride salts were used.
The pylorus of a wistar male rat weighing 230 to 250 g, which had fasted for 48 hours, was ligated under ether-anesthesia, according to a usual method. After 14 hours, the animal was sacrificed by ether and the stomach was taken out therefrom.
The area of the ulcer generated on the fore-stomach was measured and the total area of the ulcer per rat was classified into the following six grades to give ulcer coefficients (Table 4).
Each of them was suspended in 0.5% methylcellulose solution and administered in the duodenum immediately after ligating the pylorus, in a dose of 100 mg/kg (body weight), respectively. To control group, only the medium for the medicament solution was administered in an amount of 0.25 ml/100 g (body weight).
The obtained results were subjected to the following formula to calculate a percentage of inhibition of ulcer formation. Six rats were used in each group for the test: [formula]

[2] = test system: ulcer induced by hydrochloric acid/ethanol; experiment: Test of ulcer induced by hydrochloric acid/ethanol; type: in vivo, wistar male rat; details: 1 h, read-out: Percentage of inhibition of ulcer formation; for inhibition in vivo at 30 mg/kg: 30 mg/kg oral, hydrochloride salts
Procedure: as §1
To a wistar male rat weighing 220 to 240 g, which had fasted and thirsted for 24 hours, was orally administered 150 mM hydrochloric acid/70% ethanol solution in an amount of 5 ml/kg (body weight). After 1 hour, the animal was sacrificed by dislocating the cervical vertebrae and the stomach was taken out therefrom. The length of the ulcer generated on the glandular stomach was measured and the total thereof was regarded as the ulcer coefficient (mm).
To control group, only the medium for the medicament solution was orally administered in an amount of […] (body weight), 30 minutes before the administration of hydrochloric acid/ethanol.
(§2) The obtained results were subjected to the same formula as in the test of ulcer induced by pylorus-ligation, to calculate a percentage of inhibition of ulcer formation. Six rats were used in each group for the test.

[3] = test system: ulcer induced by a stress of restraint plus water-immersion; experiment: Test of ulcer induced by a stress of restraint plus water-immersion; type: in vivo, ddY male mouse; details: 7 h, read-out: Percentage of inhibition of ulcer formation; for inhibition in vivo at 30 mg/kg: mouse, 30 mg/kg oral, 15 minutes before the load of the stress, hydrochloride salts
Procedure: as §1
A ddY male mouse weighing 20 to 25 g, which had fasted for 18 hours, was put into a stress cage, and was loaded with a stress by immersing it in a water tank at 23° C., to a level of a xiphoid. After 7 hours, the animal was sacrificed by dislocating the cervical vertebrae and the stomach was taken out therefrom. The length of the ulcer generated on the glandular stomach was measured and the total thereof was regarded as the ulcer coefficient (mm).
To control group, only the medium for the medicament solution was orally administered in an amount of 0.1 ml/10 g (body weight) 15 minutes before the load of the stress.
as §2

[4] = test system: cure-prolonged ulcer induced by acetic acid; experiment: Test of cure-prolonged ulcer induced by acetic acid; type: in vivo, wistar male rat; details: rat, 50 mg/kg oral, twice a day; cure prolonged with indomethacin 1 mg/kg s.c. for 13 days
Procedure: as §1
Into the junction of the glandular stomach and the antrum, of a wistar male rat weighing 220 to 240 g, was injected subserosally 30 μl of 20% acetic acid to generate an ulcer induced by acetic acid. From 2 days after the generation of the ulcer, indomethacin was injected subcutaneously in the regions of back of the rat in a dose of 1 mg/kg, once a day for 13 days to prolong the cure of the ulcer induced by acetic acid.
Each of them was suspended in 0.5% methylcellulose solution, and administered orally in a dose of 50 mg/kg, twice a day (in the morning and in the evening) from 13 days, respectively. The animal was sacrificed by ether on the day after the last administration, and the stomach was taken out therefrom. The area of the ulcer was measured. The obtained results were subjected to the following formula to calculate a percentage of improvement for curing ulcer. To control group, only the medium for the medicament solution was administered in an amount of 0.5 ml/100 g (body weight). Twenty rats were used in each group for the test. [formula]

[5] = test system: ulcer induced by acetic acid; experiment: Test of ulcer induced by acetic acid; type: in vivo, wistar male rat; details: rat, 15 mg/kg oral, twice a day from 2 days after generation of the ulcer
Procedure: as §1
Into the junction of the glandular stomach and the antrum, of a wistar male rat weighing 220 to 240 g, was injected subserosally […] of 20% acetic acid to generate an ulcer induced by acetic acid. […] Each of them was suspended in 0.5% methylcellulose solution, and administered orally in a dose of 15 mg/kg, twice a day (in the morning and in the evening) from 2 days after the generation of the ulcer for days, respectively. The animal was sacrificed by ether on the day after the last administration, and the stomach was taken out therefrom. The area of the ulcer was measured.
The obtained results were subjected to the following formula to calculate a percentage of improvement for curing ulcer. To control group, only the medium for the medicament solution was administered in an amount of 0.5 ml/100 g (body weight). Twenty rats were used in each group for the test. [formula]

[6] = rat, 100 mg/kg, in the duodenum immediately after ligating the pylorus, hydrochloride salts
[7] = rat, 30 minutes before hydrochloric acid/ethanol

SMILES	inhibition in vivo at 100 mg/kg [1, 6]	inhibition in vivo at 30 mg/kg [2, 7]	inhibition in vivo at 30 mg/kg [3]	other results
COC(=O)NCC[S+]([O-])CC(=O)NCCCOc1cccc(CN2CCCCC2)c1 (centres unmarked) [Example 48]	95%	73%	100%	
CCOC(=O)NCCSCC(=O)NC/C=C\COc1cccc(CN2CCCCC2)c1 [Example 14, N-[4-[3-(piperidinomethyl)phenoxy]-cis-2-butenyl]-2-[2-(ethoxycarbonylamino)ethylthio]acetamide]	63%	77%	91%	
COC(=O)NCCSCC(=O)NCCCOc1cccc(CN2CCCCC2)c1 [Example 12, N-[3-[3-(piperidinomethyl)phenoxy]propyl]-2-[2-(methoxycarbonylamino)ethylthio]acetamide]	77%	68%	68%	
O=C(CSCCNC(=O)c1ccccn1)NCCCOc1cccc(CN2CCCCC2)c1 [Example 6]	67%	61%	88%	
O=C(CSCCNC(=O)c1ccoc1)NC/C=C\COc1cccc(CN2CCCCC2)c1 [Example 10, N-[4-[3-(piperidinomethyl)phenoxy]-cis-2-butenyl]-2-[2-(3-furoylamino)ethylthio]acetamide]	73%	89%	73%	
COC(=O)NCCSCC(=O)NC/C=C\COc1cccc(CN2CCCCC2)c1 [Example 15, N-[4-[3-(piperidinomethyl)phenoxy]-cis-2-butenyl]-2-[2-(methoxycarbonylamino)ethylthio]acetamide]	68%	60%	98%	
CNC(=S)NCCSCC(=O)NCCCOc1cccc(CN2CCCCC2)c1 [Example 16, N-[3-[3-(piperidinomethyl)phenoxy]propyl]-2-[2-(N'-methylthioureido)ethylthio]acetamide]	70%	62%	74%	
COC(=O)NCC[S+]([O-])CC(=O)NC/C=C\COc1cccc(CN2CCCCC2)c1 (centres unmarked) [Example 79]	57%	78%	67%	
CCOC(=O)NCCSCC(=O)NCCCOc1cccc(CN2CCCCC2)c1 [Example 13, N-[3-[3-(piperidinomethyl)phenoxy]propyl]-2-[2-(ethoxycarbonylamino)ethylthio]acetamide]	68%	69%	89%	
CCCCNC(=S)NCCSCC(=O)NC/C=C\COc1cc(CN2CCCCC2)ccn1 [Example 95]	73%	72%	71%	
COc1ccccc1C(=O)NCCSCC(=O)NC/C=C\COc1cc(CN2CCCCC2)ccn1 [Example 91]	69%	87%	83%	
NC(N)=Nc1nc(CSCCC(N)=NS(N)(=O)=O)cs1 [famotidine, reference compound]	70%		100%	Percentage of improvement for curing ulcer [4]: 26%; inhibition in vivo at 100 mg/kg ([2]; rat, 100 mg/kg oral (cimetidine and famotidine), 30 minutes before hydrochloric acid/ethanol): 34%; Percentage of improvement for curing ulcer [5]: 7%
COc1ccccc1C(=O)NCCSCC(=O)NC/C=C\COc1cccc(CN2CCCCC2)c1 [Example 73]	60%	67%	69%	
O=C(CSCCNC(=O)c1ccccc1)NC/C=C\COc1cccc(CN2CCCCC2)c1 [Example 8, N-[4-[3-(piperidinomethyl)phenoxy]-cis-2-butenyl]-2-[2-(benzoylamino)ethylthio]acetamide]	50%	90%	93%	
CN/C(=N/CCSCc1nc[nH]c1C)NC#N [cimetidine, reference compound]				inhibition in vivo at 100 mg/kg ([1]; Rattus norvegicus): 27%; inhibition in vivo at 100 mg/kg ([2]; Rattus norvegicus, po): 7%; inhibition in vivo at 100 mg/kg ([3]; Mus musculus, po): 61%
O=C(CSCCNC(=O)c1ccco1)NCCCOc1cccc(CN2CCCCC2)c1 [Example 5, N-[3-[3-(piperidinomethyl)phenoxy]propyl]-2-[2-(2-furoylamino)ethylthio]acetamide]	57%	97%	93%	
COc1ccc(CN2CCCCC2)cc1OC/C=C\CNC(=O)CSCCNC(=O)c1ccoc1 [Example 4, N-[4-[(2-methoxy-5-piperidinomethyl)phenoxy]-cis-2-butenyl]-2-[2-(3-furoylamino)ethylthio]acetamide]	73%	97%	75%	
C=CCOC(=O)NCC[S+]([O-])CC(=O)NC/C=C\COc1cccc(CN2CCCCC2)c1 (centres unmarked) [Example 81]	76%	69%	73%	
CCC(=NC#N)NCCSCC(=O)NC/C=C\COc1cccc(CN2CCCCC2)c1 [Example 11, N-[4-[3-(piperidinomethyl)phenoxy]-cis-2-butenyl]-2-[2-[(N-cyanopropioimidoyl)amino]ethylthio]-acetamide]	55%	51%	70%	
O=C(CSCCNC(=O)c1ccccc1F)NCCCOc1cccc(CN2CCCCC2)c1 [Example 44]	57%	83%	77%	
